pIC50: −log10 of the molar value. Entries after “also recorded” stand apart in the source; their conditions may differ. Where two headings read alike, the source gives them in different places.
What was measured:
[1] = test system: PKC; assay: PKC inhibition in platelets; format: cell-based
[2] = Partition in Bligh-Dyer extracts; format: physicochemical
Procedure: At these wavelengths, there was minimal absorbance by cellular components contained in the chloroform phase. […] METHOD: […] The monolayers were treated with 25 μM 1b or 1c and incubated at 37° C. After incubating the samples for the times indicated in FIG. 1, the monolayers were washed three times with DPBS and detached using 1 ml of Trypsin-EDTA.An aliquot of the cell suspension was counted using a Coulter Counter and a 0.8 ml aliquot was extracted in a Bligh-Dyer extraction (Bligh et at., Can. J. Biochem. 31:911-916 (1959)). The absorbance of the lower chloroform phase was measured at 648 nm and 600 nm using a spectrophotometer. The amount of 1b or 1c present in the extract was quantitated from a standard curve performed in cell extracts. The data is expressed as nmol anthraquinone/10^6 cells.

[3] = in vitro; settings: human
Procedure: (§1) Myelosuppression is often a dose limiting side effect of chemotherapeutic agents. […] The toxicities to human granulocyte-macrophage progenitors (CFU-GM) of 1b, 1c, and VLB was assessed by measuring inhibition of CFU-GM proliferation in cultures continuously exposed to each agent alone and compared to the toxicities to sensitive and resistant MCF7 in tumor cell clonogenic assays.
(§2) METHOD: The CFLI-GM assay measures clonal proliferation of granulocyte/macrophage precursors in semisolid agar cultures. The progeny of the granulocyte/macrophage precursors remain in proximity of the progenitor cells and form colonies. Colonies which contain greater than 40 cells after 10-12 days of culture are counted using an inverted phase contrast microscope. The tumor cell clonogenic assays measure clonal proliferation of tumor cells. In this assay, 300-500 cells are plated in 10 cm^2 wells, allowed to adhere overnight, and are treated the following day. Tumor cell colonies were counted after 10-12 days of culture. The times of exposure in these experiments are similar; however, the concentrations of FCS are 20% in the CFU-GM assay and 10% in the tumor cell clonogenic assays. The IC50's are calculated as described above for the MTT proliferation assays. (See Example 4).
(§3) To facilitate this comparison, a CFLI-GM toxicity index was calculated by dividing the CFU-GM IC50 by the respective tumor cell clonogenic IC50's in sensitive and resistant cells.

[4] = test system: granulocyte-macrophage progenitors (CFU-GM); assay: cells
Procedure: as §1, §2, §3

[5] = test system: MCF7 Adr 10; assay: Tumor cell clonogenic assay, MCF7 ADR 10; format: cell-based, human
[6] = test system: MCF7 Adr 10 human breast cancer cells; assay: Vinblastine accumulation assay, MCF7 Adr 10; format: cell-based; settings: for activity in vinblastine accumulation assay / drug accumulation: MDR MCF7
Procedure: [^3 H] vinblastine ([^3 H] VLB) was added to a final concentration of 100 nM and the cells were incubated for 2.5 hours. At this time, the cells were washed 3 times in ice cold PBS and lysed in buffer containing 0.1% Triton X-100. Net accumulation of [^3 H] vinblastine was expressed as pmol/mg protein. In [^3 H]

[7] = test system: MCF7 Adr 10 human breast cancer cells; assay: Time course of accumulation of anthraquinones in cells; format: cell-based; settings: 25 μM, 37° C., MCF7 Adr 10 cells
Procedure: METHOD: Near confluent monolayers of MCF7 ADR 10 were washed 2 times with Dulbecco's Phosphate Buffered Saline (DPBS) and 1 ml of Iscove's Modified Dulbecco's Medium (IMDM) was added to each well. The monolayers were treated with 25 μM 1b or 1c and incubated at 37° C. After incubating the samples for the times indicated in FIG. 1, the monolayers were washed three times with DPBS and detached using 1 ml of Trypsin-EDTA.An aliquot of the cell suspension was counted using a Coulter Counter and a 0.8 ml aliquot was extracted in a Bligh-Dyer extraction (Bligh et at., Can. J. Biochem. 31:911-916 (1959)). The absorbance of the lower chloroform phase was measured at 648 nm and 600 nm using a spectrophotometer. The amount of 1b or 1c present in the extract was quantitated from a standard curve performed in cell extracts. The data is expressed as nmol anthraquinone/10^6 cells.

[8] = test system: MCF7 WT; assay: Tumor cell clonogenic assay, MCF7 WT; format: cell-based, human; settings: Homo sapiens, MCF7; tumor cell clonogenic assay, 10-12 days; read-out: Continuous Exposure IC50, MCF7 WT
Procedure: The tumor cell clonogenic assays measure clonal proliferation of tumor cells. In this assay, 300-500 cells are plated in 10 cm^2 wells, allowed to adhere overnight, and are treated the following day. Tumor cell colonies were counted after 10-12 days of culture. […] The IC50's are calculated as described above for the MTT proliferation assays.

[9] = test system: PKC; assay: Micellar PKC screening assay; format: biochemical
From the text: The N-substituted diaminoanthraquinone, 1b, (1,4-bis-[[3'-(diethylamino)propyl]amino]anthraquinone), was identified as a PKC inhibitor in the micellar PKC screening assay and in platelets. […] Spectrophotometric analysis of 1b and lc indicated they were excellent chromophores with absorbance maxima at 648 and 600 nm in chloroform, respectively, and extinction coefficients of approximately 20,000. At these wavelengths, there was minimal absorbance by cellular components contained in the chloroform phase. These properties of 1b and 1c were utilized to determine the time course of accumulation of these compounds in MDR MCF7 Adr 10 cells.
The activities of 1a, 1b, 1c and 1d and mitoxantrone, an anthraquinone antineoplastic drug, were evaluated in vinblastine drug accumulation assays performed by the following method. […] Mitoxantrone was identified as a PKC inhibitor in miceliar PKC assays. Compound 1d (1,4-bis-[[2-(4-morpholino)ethyl]amino]anthraquinone) was only evaluated in cellular studies.

[10] = test system: MDR cell lines; settings: literature, cited from earlier work
[11] = test system: casein kinase 2; assay: Casein kinase 2 inhibition; format: biochemical
From the text: One possible explanation for stimulation of phosphorylation of P-glycoprotein and MARCKS is that 1c may activate PKC or other cellular kinases by signal transduction pathways that have not yet been identified to phosphorylate these proteins. An alternative explanation for stimulation of phosphorylation of P-glycoprotein and MARCKS is that 1c inhibits protein phosphatases.

[12] = test system: intrinsically resistant renal cell carcinoma cell lines; settings: cited from earlier work
[13] = test system: patients; settings: human, in vivo; cited from earlier work
[14] = test system: P-glycoprotein; settings: intact MDR cells and MDR membrane vesicles; cited from earlier work
[15] = test system: P-glycoprotein; settings: cited from earlier work
[16] = clinical trials; cited from earlier work
[17] = test system: PKC; settings: literature; cited from earlier work
[18] = test system: patients; settings: cited from earlier work
[19] = molecular target: P-glycoprotein in MCF7 Adr 10 membrane vesicles (Homo sapiens, UniProt P08183)
[20] = [3H] VLB binding to MCF7 WT membrane vesicles; design: species or system human; settings: MCF7 WT vesicles
Procedure: METHOD: Membrane vesicles from sensitive and MDR MCF7 were prepared by nitrogen cavitation and isolated by centrifugation in discontinuous sucrose gradients. […] In the presence of 100 nM [^3 H] VLB and ATP, total and nonspecific binding of [^3 H] VLB (experimentally defined as binding in the presence of a 100 μM unlabeled VLB) was measured. Association of [^3 H] […] In contrast, association of [^3 H] […] VLB with MCF7 WT vesicles.

P-glycoprotein in MCF7 Adr 10 membrane vesicles, sequence (P08183 whole entry): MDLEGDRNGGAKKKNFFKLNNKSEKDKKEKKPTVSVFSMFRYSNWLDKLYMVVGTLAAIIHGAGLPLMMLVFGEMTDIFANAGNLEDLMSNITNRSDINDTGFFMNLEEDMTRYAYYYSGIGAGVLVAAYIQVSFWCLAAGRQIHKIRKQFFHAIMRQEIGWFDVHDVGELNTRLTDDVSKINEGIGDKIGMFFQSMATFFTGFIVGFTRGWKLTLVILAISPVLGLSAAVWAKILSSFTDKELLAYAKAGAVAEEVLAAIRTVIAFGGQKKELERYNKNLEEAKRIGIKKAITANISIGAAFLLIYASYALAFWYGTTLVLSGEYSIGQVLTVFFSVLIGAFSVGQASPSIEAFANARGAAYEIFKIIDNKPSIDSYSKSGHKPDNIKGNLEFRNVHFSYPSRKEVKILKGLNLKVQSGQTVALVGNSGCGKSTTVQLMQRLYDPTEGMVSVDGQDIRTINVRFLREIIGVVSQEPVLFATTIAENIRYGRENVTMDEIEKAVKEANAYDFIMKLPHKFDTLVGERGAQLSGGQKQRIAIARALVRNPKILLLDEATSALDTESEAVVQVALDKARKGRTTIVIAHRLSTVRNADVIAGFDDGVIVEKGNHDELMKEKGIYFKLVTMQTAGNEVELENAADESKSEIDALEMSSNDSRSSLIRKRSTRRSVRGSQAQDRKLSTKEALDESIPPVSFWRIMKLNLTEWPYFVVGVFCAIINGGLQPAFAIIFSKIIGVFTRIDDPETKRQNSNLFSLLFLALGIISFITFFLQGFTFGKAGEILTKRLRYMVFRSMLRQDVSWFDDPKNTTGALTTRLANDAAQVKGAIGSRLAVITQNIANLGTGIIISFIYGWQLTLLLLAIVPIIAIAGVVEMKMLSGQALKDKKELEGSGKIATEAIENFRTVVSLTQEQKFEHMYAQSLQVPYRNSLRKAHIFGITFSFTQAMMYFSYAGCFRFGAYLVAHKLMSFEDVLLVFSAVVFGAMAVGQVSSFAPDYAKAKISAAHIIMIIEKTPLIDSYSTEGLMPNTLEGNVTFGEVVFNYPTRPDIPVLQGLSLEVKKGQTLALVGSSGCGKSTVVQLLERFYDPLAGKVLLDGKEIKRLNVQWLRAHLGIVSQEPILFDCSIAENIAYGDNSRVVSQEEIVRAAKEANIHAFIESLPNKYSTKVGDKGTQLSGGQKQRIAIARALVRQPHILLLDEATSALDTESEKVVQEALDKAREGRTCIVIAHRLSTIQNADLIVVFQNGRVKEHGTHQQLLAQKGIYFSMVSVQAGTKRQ

Compound: CCN(CC)CCCNc1ccc(NCCCN(CC)CC)c2c1C(=O)c1ccccc1C2=O [Compound 1b, 1,4-bis-[[3'-(diethylamino)propyl]amino]anthraquinone]
- PKC inhibition in platelets [1]: PKC inhibitor
- blue color partitioning with cellular phospholipids in the lower chloroform phase ([2]; Bligh-Dyer extracts of treated cells): > 95%
- selectivity ratio ([3]; CFU-GM Toxicity Index (CFU-GM IC50 / Tumor Cell Clonogenic IC50)): 3.5
- selectivity ratio ([3]; cfu-gm vs mcf7, CFU-GM toxicity indices): > 1
- selectivity ratio ([3]; mcf7 vs cfu-gm, sensitivity of both tumor lines relative to CFU-GM): 2 to 3.5
- pIC50 ([4]; Homo sapiens, CFU-GM, read-out: Continuous Exposure IC50, CFU-GM): 5.85
- CFU-GM Toxicity Index (CFU-GM IC50 / Tumor Cell Clonogenic IC50) ([4]; human): 2.0
- pIC50 ([5]; Homo sapiens, NCI/ADR-RES, tumor cell clonogenic assay, 10-12 days, read-out: Continuous Exposure IC50, MCF7 ADR 10): 6.15
- relative sensitivity of MCF7 WT and MDR MCF7 to cytotoxicity ([5]; clonogenic assays): MCF7 WT are more sensitive to cytotoxicity of 1b than MDR MCF7
- minimal effective concentration ([6]; Homo sapiens, NCI/ADR-RES, 100 nM [3H] VLB, 2.5 hours, FIGS. 2 and 3, read-out: lowest concentration which causes a doubling of basal accumulation of vinblastine): 25 µM
- activity in vinblastine accumulation assay / drug accumulation [6]: increase vinblastine accumulation in MDR MCF7
- drug accumulation relative to other PKC inhibitors ([6]; drug accumulation assays): significantly greater activity in drug accumulation assays than other PKC inhibitors
- time of maximal accumulation of 1b and 1c [7]: about 2 hours
- pIC50 [8]: 6.40
- PKC activity in micellar PKC screening assay [9]: PKC inhibitor

Compound: O=C1c2c(O)ccc(O)c2C(=O)c2c(NCCNCCO)ccc(NCCNCCO)c21 [mitoxantrone, reference compound]
- partition into the lower chloroform phase [2]: does not partition into the lower chloroform phase
- drug accumulation and reversal of resistance in MDR cell lines [10]: less cross-resistance
- activity in vinblastine accumulation assay / drug accumulation [6]: significant loss of activity; also recorded: did not show significant activity
- activity in vinblastine accumulation assay / drug accumulation ([6]; listed as Mitoxantrone): does not increase drug accumulation
- PKC activity in micellar PKC screening assay [9]: PKC inhibitor
- inhibitory activity in in vitro PKC assays relative to 1b or 1c [9]: greater inhibitory activity
- inhibitory activity in in vitro casein kinase 2 assays relative to 1b or 1c [11]: greater inhibitory activity

Compound: CC/C(=C(\c1ccccc1)c1ccc(OCCN(C)C)cc1)c1ccccc1 [tamoxifen]
- drug accumulation and reversal of resistance in MDR cell lines [10]: can also modulate resistance of estrogen receptor-negative MDR cell lines
- drug accumulation and vinblastine resistance in renal cell carcinoma [12]: increase drug accumulation and decrease vinblastine resistance
- toxicity in humans [13]: minimal neurologic toxicity that was reversible with cessation of tamoxifen

Compound: Cyclosporin A
- [3H] azidopine photoaffinity labeling of P-glycoprotein [14]: inhibit
- inhibition of vincristine and vinblastine binding to P-glycoprotein [15]: competitively inhibits vincristine and vinblastine binding to the P-glycoprotein

Compound: OCCN1CCN(CC/C=C2\c3ccccc3Sc3ccc(C(F)(F)F)cc32)CC1 [Trans-flupenthixol]
- antipsychotic potency relative to the cis isomer [16]: much less potent antipsychotic in clinical trials than the cis isomer
- drug accumulation and reversal of resistance in MDR cell lines [10]: increased doxorubicin accumulation and reversed the MDR phenotype more effectively in a number of MDR cell lines than verapamil

Compound: COc1ccc(CCN(C)CCCC(C#N)(c2ccc(OC)c(OC)c2)C(C)C)cc1OC (centres unmarked) [verapamil]
- PKC inhibition in vitro [17]: non-specifically inhibit PKC in vitro
- concentrations inhibiting the MDR phenotype [10]: 2 to 10 µM
- drug accumulation and reversal of resistance in MDR cell lines [10]: more effective in reversal of resistance to anticancer drugs in other studies
- drug accumulation and reversal of resistance in MDR cell lines ([10]; listed as Verapamil): increases in accumulation and decreases in resistance to natural product chemotherapeutic drugs
- dose-limiting toxicity [18]: dose-limiting cardiac toxicity

Compound: CCC1(O)CC2CN(CCc3c([nH]c4ccccc34)C(C(=O)OC)(c3cc4c(cc3OC)N(C)C3C(O)(C(=O)OC)C(OC(C)=O)C5(CC)C=CCN6CCC43C65)C2)C1 (centres unmarked) [[^3 H] VLB]
- enhancement of [3H] VLB association by addition of ATP [19]: 2-3 fold
- time to maximal association of [3H] VLB [19]: ≤ 15 min
- association of [3H] VLB relative to MCF7 Adr 10 [20]: approximately 15%

Compound: O-acetyl C9 -cyclosporin A [SDZ 33-243]
- [3H] azidopine photoaffinity labeling of P-glycoprotein [14]: inhibit
